These results are taken from US9480280B2, “Taste modifiers” (Givaudan S.A., priority 2012, dated 2016).

The nature of assay [1]: Low fat milk evaluation of creamyness/mouthfeel enhancement. Particulars: 4 ppm in low fat milk (1.5-2% fat), compared to base without compound. An excerpt: Low fat milk (1.5-2% fat) was used as a base to evaluate the creamyness/mouthfeel enhancement properties of the compounds. Samples with compound were compared to the base without compound added.
A short description of assay [2]: Skim milk evaluation of creamyness/mouthfeel enhancement. Particulars: 10 ppm in skim milk, compared to base without compound. An excerpt: Skim milk was used as a base to evaluate the creamyness/mouthfeel enhancement properties of the compounds. Samples with compound were compared to the base without compound added.
Assay [3] in a line: Sweetened yogurt evaluation of creamyness/mouthfeel enhancement. Particulars: 10 ppm in yogurt with 5% sucrose and 0.03% creamy mouthfeel flavor, compared to base without compound. An excerpt: Sweetened yogurt with flavor was used as a base to evaluate the creamyness/mouthfeel enhancement properties of the compounds. The yogurt base was sweetened with 5% sucrose and 0.03% creamy mouthfeel flavor (Givaudan 97584209). Samples with compound were compared to the sweetened base without compound added.

Assay [4] in a line: Kefir evaluation of creamyness/mouthfeel enhancement. Conditions: compared to base without compound. An excerpt:
A commercial Kefir drink was used as a base to evaluate the creamyness/mouthfeel enhancement properties of the compounds. Samples with compound were compared to the base without compound added.

The nature of assay [5]: Sucralose evaluation of bitter masking. Particulars: compared to base without compound. How it is done:
Compounds were prepared in a sucralose base containing 80 ppm sucralose in water. Compounds were calculated in the base and compared to the base without may compound added.
A solution containing 80 ppm sucralose in water was used as a base to evaluate the bitter masking properties of the compounds. Samples with compound were compared to the base without compound added.

Assay [6] in a line: Rebaudioside A evaluation (taste descriptors). Particulars: compared to base without compound. How it is done: A tasting base was prepared with 300 ppm Rebaudioside A in ater. Compounds were added to the base in the concentrations indicated in the table and compared to the base without compound added.
A short description of assay [7]: Red Bull drink evaluation of masking. Particulars: compared to base without compound. As for the experimental part:
A commercial Red Bull™ Energy drink was used as a base to evaluate the masking properties of the compounds. Compounds were added to the base in the concentrations indicated in the table and compared to the base without compound added.

For assay [8] the following is noted: J. Agr. Food. Chem. 2007, 55, 9634-9645; cited from earlier work.
[9] abbreviates: 5 ppm in commercial Kefir drink.
The mark [10] stands for this setting: 2 ppm in 80 ppm sucralose in water.
The mark [11] stands for this setting: 5 ppm in 80 ppm sucralose in water.
[12] abbreviates: 10 ppm in 80 ppm sucralose in water.
[13] abbreviates: 2 ppm in 300 ppm Rebaudioside A in water.
Setting [14] is: 5 ppm in 300 ppm Rebaudioside A in water.
Setting [15] is: 10 ppm in 300 ppm Rebaudioside A in water.
Setting [16] is: 2 ppm in commercial Kefir drink.
Setting [17] is: 10 ppm in Red Bull Energy drink.

Each structure is given as a SMILES string.

Consider `CCC(O)CCCCCCC(=O)O` (stereo not drawn) [8-Hydroxy decanoic acid, 8-hydroxydecanoic Acid], for which the “Taste Description” value was “Slight mouthfeel” in assay [1]; “Some mouthfeel effect” in assay [2]; “Lingering waxy profile, fattier” in assay [3]; “Creamy. fatty mouthfeel. good” in assay [4] (setting [9]); “Less lingering, more” in assay [5] (setting [10]); “Velvety mouthfeel. very full” in assay [5] (setting [11]). The “Taste Description” value is recorded as “No masking, adds” in assay [5] (setting [12]); “Less bitter, less bitter” in assay [6] (setting [13]); “Less bitter, less bitter” in assay [6] (setting [14]); “Helps overall especially” in assay [6] (setting [15]).

Consider `CCC(O)CCCC1CCC(=O)O1` (stereo not drawn) [8-hydroxy gamma decalactone, 5-(4-hydroxyhexyl)dihydrofuran-2(3H)-one], for which the “Taste Description” value is “Some mouthfeel effect” in assay [2]; “Much creamier, fattier, fuller,” in assay [4] (setting [16]); “more mid body, creamier” in assay [4] (setting [9]); “Floral, little masking, waxy,” in assay [5] (setting [10]); “Some effect” in assay [5] (setting [11]); “Masks sweetness, floral,” in assay [5] (setting [12]). The “Taste Description” value in assay [6] (setting [13]) is listed as “Masks lots of bitter, less”; in assay [6] (setting [14]) it was “Some masking”; in assay [6] (setting [15]), “High offnote, masks more”; in assay [7] (5 ppm in Red Bull Energy drink), “Good masking. less sweet”; in assay [7] (setting [17]), “Offnote, similar to control”.

Consider `CC(O)CCCCCCCC(=O)O` (stereo not drawn) [9-Hydroxy decanoic acid, 9-hydroxydecanoic Acid], for which the “Taste Description” value in assay [1] is listed as “Slightly more mouthfeel”; in assay [2], “Some mouthfeel effect”; in assay [3], “Lingering waxy profile, fattier”; in assay [4] (setting [16]), “Very creamy, slight mouthfeel, more”; in assay [4] (setting [9]) it was “Very creamy, mouth-coating, smooth,”; in assay [5] (setting [10]), “Less bitter. lingering, more”. Also, the “Taste Description” value in assay [5] (setting [11]) was “Backend masks lingering”; in assay [5] (setting [12]) it was “Nice mouthfeel, full upfront”; in assay [6] (setting [13]), “Less bitter, lingering, more”; in assay [6] (setting [14]) it was “Less bitter, lingernig, waxy,”; in assay [6] (setting [15]), “Offtaste, not much”; in assay [7] (setting [17]), “Masks better than control”.

On to `CC(O)CCCCC1CCC(=O)O1` (stereo not drawn) [9-hydroxy gamma decalactone, 5-(5-hydroxyhexyl)dihydrofuran-2(3H)-one], for which the “Taste Description” value is on record as “No mouthfeel” in assay [2]; “More creamy than control, upfront” in assay [4] (setting [16]); “More dairy note, more mid body” in assay [4] (setting [9]); “Floral, little masking, waxy,” in assay [5] (setting [10]); “Some effect” in assay [5] (setting [11]); “High offnote. masks” in assay [5] (setting [12]). Further, the “Taste Description” value in assay [6] (setting [13]) is reported as “Slight fatty note at end”; in assay [6] (setting [14]), “Not much”; in assay [6] (setting [15]), “High offnote, changes”; in assay [7] (5 ppm in Red Bull Energy drink) it was “Less sweetness, strong linger”; in assay [7] (setting [17]), “Good masking, offnote”.

For the compound `CCCCCCCCCC1CCCC(=O)O1` (stereo not drawn) [δ-tetradecalactone], in assay [8], the “effect on cream flavour / creaminess” value is given as “able to enhance the retronasal cream flavour”.
